Results: patent publication US9234242B2, “Methods for treating depression using NCAM peptide mimetics” (THE BOARD OF THE TRUSTEES OF THE LELAND STANFORD JUNIOR …, priority 2005, dated 2016)

Tests used:
Rodents [1] = assay: Forced swim test (FST) after microinjection; assay type: in vivo, rats; conditions: microinjection (intracerebroventricular), versus controls
Source text: (§1) In another embodiment, the present invention provides methods for altering the behavioral profiles of rats by injecting the rats with FGF2, an NCAM peptide mimetic, and a peptide inhibitor of FGF receptors. Both FGF2 and the NCAM peptide mimetic have antidepressant-like effects in the forced swim test when injected intracerebroventricularly. […] In one embodiment of the invention, ligands that activate FGF receptors are used for their antidepressant effects in the therapeutic treatment of individuals with MDD.
(§2) This is indicative of less depression-like behavior in FGF2 animals.
(§3) Again, this is an index of less depression-like behavior. This is also in the same direction as the FGF2 data, consistent with the fact that both FGF2 and NCAM interact with the FGF receptor.
(§4) These observations are nevertheless consistent with the conclusions drawn from the microinjection studies above.

Rodents [2] = assay: Elevated plus maze (EPM) after microinjection; assay type: in vivo, rats; conditions: microinjection (intracerebroventricular), versus controls
Source text: as §1, §2, §3, §4

Sprague-Dawley rats = assay: Morris water maze learning and memory test in adults after early postnatal injection; assay type: in vivo; conditions: 20 ng/g s.c. the day after birth, tested as adults; vehicle-injected rats 25 seconds
Experimental: (§5) Sprague-Dawley rats were injected with either vehicle or FGF2 (20 ng/g, s.c.) the day after birth and sacrificed after Morris water maze testing as adults. We assessed changes in gene expression using both a candidate approach and a gene discovery approach with laser-capture microdissection of the dentate gyrus followed by microarray analyses.

[3] = test system: genes associated with neural plasticity; assay: Long-term changes in hippocampal gene expression (histochemical and RNA expression assays); assay type: in vivo; conditions: adult rats, 20 ng/g s.c. the day after birth
Experimental: as §5

rats = assay: Elevated plus-maze (EPM) and light-dark (LD) anxiety test after chronic administration; assay type: in vivo; conditions: 5 ng/g i.p. every 48 hours for 3 weeks
Experimental: Anxiety disorders have a high comorbidity with other neuropsychiatric disorders including Major Depression (MD). […] Rats were placed into “high anxiety” (LR) or “low anxiety” (HR) groups based on their behavior in a variety of motor and behavioral tests. Both groups of animals were administered either FGF2 (5 ng/g) or vehicle by intraperitoneal injection every 48 hours for 3 weeks. One day after the last FGF2 injection, all animals were tested in the elevated plus-maze (EPM) and light-dark (LD) anxiety test.
The apparatus for the EPM test is constructed of black Plexiglass with […] (70 cm from the floor, 45 cm long, and 12 cm wide). Illumination is provided by a 40-watt desk lamp facing a wall and placed behind one of the closed arms. The scientists put the animal inside the system. Animals that are less anxious spend more time in the open arms whereas animals that are more anxious spend less time in the open arms.
The LD test is conducted in a 30×60×30-cm Plexiglas shuttle box with a translucent cover. Each box is divided into two equal-sized compartments by a wall with a 12 cm-wide open door. One compartment is painted white and brightly illuminated, and the other is painted black with very dim light. The time each rat spends in each compartment is monitored by rows of five photocells located 2.5 cm above the grid floor of each compartment. […]

[4] = test system: FGFR2 and FGFR3 exon IIIc:IIIb splice variant ratio; assay: Real time RT-PCR of exon IIIc:IIIb splice variant ratio in frontal cortex, chronic unpredictable stress; assay type: in vivo, rats; conditions: 5 ng/g i.p. every 48 hours for three weeks
Experimental: Half of the rats (n=12) were administered vehicle (0.1M PBS with 100 μg/mL bovine serum albumin), and the other half (n=12) were administered human recombinant FGF2 dissolved in vehicle in 5 ng/g dosages (Sigma, St. Louis, Mo.) every 48 hours for three weeks. All treatments were injected intra-peritoneally. During the same three week period as the FGF2 treatments, the vehicle group was either handled (n=6) or exposed to CUS (n=6). Likewise, the FGF2 injected group was either handled (n=6) or exposed to CUS (n=6). […]
Gross dissections were performed on the frontal cortex of all brains. […] Using the Bioanalyzer's concentration readings, the samples were normalized to 25 ng/μL of total RNA per subject and stored at −80° C.
cDNA was synthesized using the iScript cDNA Synthesis Kit (Bio-Rad, Hercules, Calif.). […] The double-stranded cDNA solutions were then analyzed for quality and concentration using Invitrogen's Quant-iT PicoGreen dsDNA kit. […] The fluorescently labeled samples were analyzed with a 1420 Victor^2 Multilabel Counter (EG&G Wallac, Wellesley, Mass.) using the basic Fluorescein protocol. […]
Sequences for rat FGFR2 and FGFR3 exons were obtained from NCBI's Entrez Gene database (www.ncbi.nlm.nih.gov) and the Ensembl-Rat gene database (www.ensembl.org). […] FGFR2 and FGFR3 exon sequences were analyzed for secondary structure using the Mfold nucleic acid folding web server. […]

Substance: FGF2: FGF receptor ligand; human recombinant FGF2 (Sigma) in Example 6
- immobility in the FST (Rodents [1]): less immobility
- swimming in the FST (Rodents [1]): more swimming
- time in the closed arms of the EPM (Rodents [2]): significantly more time
- time in the open arms of the EPM (Rodents [2]): less time
- time on average to find a hidden platform in Morris Water maze test (Sprague-Dawley rats): 20 s
- expression of CCK [3]: increased
- expression of GAP-43 [3]: increased
- expression of NCAM [3]: decreased
- expression of Rgs4 [3]: increased
- expression of SST [3]: increased
- expression of Vgf [3]: increased
- expression of trkB [3]: increased
- anxiety-reducing effects in innately more anxious (LR) rats (rats; LR versus HR rats): clearly more pronounced
- anxiety versus animals who receive vehicle (rats; time in the light compartment (FIG. 9)): less anxious
- effect on the magnitude of ratio changes caused by stress [4]: nor did it significantly affect
- effect on the IIIc:IIIb ratio in the NS or S group ([4]; P>0.1): did not alter the IIIc:IIIb ratio significantly

Substance: FGF system peptide inhibitor: FGF system peptide inhibitor, amino acid sequence=HFKDPKRLY; SEQ ID NO:35 (FGF system peptide inhibitor) [reference compound]
- climbing in the FST (Rodents [1]): significantly less climbing
- immobility in the FST (Rodents [1]): more immobility
- swimming in the FST (Rodents [1]): less swimming
- time in the center quadrant of the EPM (Rodents [2]): significantly more time
- time in the closed arms of the EPM (Rodents [2]): less time
- time in the open arms of the EPM (Rodents [2]): equal time

Substance: NCAM: NCAM (FGL peptide), amino acid sequence=EVYVVAENQQGKSKA (SEQ ID NO:34); interacts with the FGF receptor (NCAM (FGL peptide))
- immobility in the FST (Rodents [1]): less immobility
- time in the center quadrant of the EPM (Rodents [2]): significantly less time
- time in the closed arms of the EPM (Rodents [2]): more time (although not significantly more time)
- time in the open arms of the EPM (Rodents [2]): less time
